From paper PMC11597150, “Antibacterial Activity of AXOTL-13, a Novel Peptide Identified from the Transcriptome of the Salamander Ambystoma mexicanum” (Pharmaceutics, 2024)
Values after ≈ are worked out from the molar mass of the structure shown. Where a SMILES comes first, the peptide text is derived from it.

Tests used:
[1] = system: Escherichia coli ATCC 25922; assay type: cell-based; conditions: for inhibitory effect on bacterial growth: microdilution in TSB, 8.7-70 μM, 20 h at 37 °C, absorbance 600 nm
Protocol: (§1) To establish the minimum inhibitory concentration (MIC), the microdilution-in-broth protocol for AMPs proposed by Wiegand et al. (2008) was performed. Bacterial strains Escherichia coli ATCC 25922 and Staphylococcus aureus ATCC 25923 were cultured in tryptic soy agar (TSA). For the assay, 5 bacterial colonies were taken, dissolved in tryptic soy broth (TSB), and incubated at 37 °C until reaching 0.5 on the McFarland scale (1 × 10^8 CFU/mL). Subsequently, a dilution was made to achieve a final concentration of 5 × 10^5 CFU/mL. A 96-well plate was used for the assay in which each bacterial strain was exposed to different concentrations of the peptides to be evaluated: 70 μM, 35 μM, 17.5 μM, and 8.7 μM. Different controls were employed: TSB medium served as the sterility control and blank; bacteria without treatment were utilized as the negative control; and bacteria exposed to the Ramosin peptide at 40 μM [31] and sodium hypochlorite at 0.06% were employed as positive controls. Each treatment was performed in triplicate, and each assay was carried out on two different days. The plate was incubated for 20 h at 37 °C in a Multiskan Sky (Thermo Fisher, Waltham, MA, USA), reading the absorbance at a wavelength of 600 nm every hour.
(§2) The results were read in two ways: an endpoint analysis in which the absorbances of the wells were read at 20 h of treatment, to determine the inhibitory effect of the peptide, and a bacterial growth kinetics analysis in which the behavior of the peptide throughout the assay was observed, identifying a bactericidal or bacteriostatic action.

[2] = system: Staphylococcus aureus ATCC 25923; experiment: Broth microdilution MIC / growth inhibition; assay type: cell-based; conditions: microdilution in TSB, 8.7-70 μM, 20 h at 37 °C, absorbance 600 nm
Protocol: as §1, §2

Row | Compound | minimum inhibitory concentration (MIC) ([1]; ATCC 25922, 20 h) [µM] | inhibitory effect on bacterial growth [1] | inhibitory effect on bacterial growth [2]
1 | CC[C@H](C)[C@H](NC(=O)[C@H](CO)NC(=O)[C@H](Cc1ccccc1)NC(=O)CN)C(=O)N[C@@H](CO)C(=O)N[C@@H](CC(C)C)C(=O)N[C@@H](CCCCN)C(=O)N[C@@H](CCCNC(=N)N)C(=O)N[C@@H](CC(C)C)C(=O)N[C@@H](CCC(N)=O)C(=O)N[C@@H](CCCCN)C(=O)N[C@@H](CCSC)C(=O)N[C@@H](CC(C)C)C(=O)O [AXOTL-13] (H-GFSISLKRLQKML-OH) | 35 (≈ 53.2 µg/mL) | – | –
2 | Peptide 4766: 13-residue peptide LIGGQLGGLIKAL predicted from the Ambystoma mexicanum transcriptome, chemically synthesized | – | did not exert a complete inhibitory effect | did not exert a complete inhibitory effect
3 | Peptide 4767: 13-residue peptide YITGLIAPILKSL predicted from the Ambystoma mexicanum transcriptome, chemically synthesized | – | did not exert a complete inhibitory effect | did not exert a complete inhibitory effect
4 | Peptide 4768: 12-residue peptide VLGSILGALKAI predicted from the Ambystoma mexicanum transcriptome, chemically synthesized | – | did not exert a complete inhibitory effect | did not exert a complete inhibitory effect
5 | Peptide 4769: 13-residue peptide LHPLIGRVIGGVI predicted from the Ambystoma mexicanum transcriptome, chemically synthesized | – | did not exert a complete inhibitory effect | did not exert a complete inhibitory effect
6 | Peptide 4771: 13-residue peptide LLDTIGKIFGSLL predicted from the Ambystoma mexicanum transcriptome, chemically synthesized | – | did not exert a complete inhibitory effect | did not exert a complete inhibitory effect
